Assays:
Assay in all cases: Test C postemergence
blackgrass = assay type: in vivo, Alopecurus myosuroides
How it was run: (§1)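 Visual rating, 0–100 scale (0 no effect, 100 complete control), vs untreated controls after 13–15 d greenhouse. Pre: seeds in loam/sand, treated at sowing. Post: plants in peat-based mix, 1- to 4-leaf (2–18 cm). Solvent + surfactant formulation, non-phytotoxic.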

ryegrass, Italian = assay type: in vivo, Lolium multiflorum; conditions: postemergence
How it was run: as §1

wheat = assay type: in vivo, Triticum aestivum; conditions: postemergence
How it was run: as §1

foxtail, giant = assay type: in vivo, Setaria faberii
How it was run: as §1

johnsongrass = assay type: in vivo, Sorghum halepense
How it was run: as §1

lambsquarters = assay type: in vivo, Chenopodium album
How it was run: as §1

morningglory = assay type: in vivo, Ipomoea coccinea
How it was run: as §1

nutsedge, yellow = assay type: in vivo, Cyperus esculentus
How it was run: as §1

pigweed = assay type: in vivo, Amaranthus retroflexus; conditions: postemergence
How it was run: as §1

ragweed = assay type: in vivo, Ambrosia elation; conditions: postemergence
How it was run: as §1

soybean = assay type: in vivo, Glycine max; conditions: postemergence
How it was run: as §1

barnyardgrass = assay type: in vivo, Echinochloa crus-galli
How it was run: as §1

oilseed rape = assay type: in vivo, Brassica napus; conditions: postemergence
How it was run: as §1

waterhemp = assay type: in vivo, Amaranthus rudis; conditions: postemergence
How it was run: as §1

oat, wild = assay type: in vivo, Avena fatua
How it was run: as §1

kochia = assay type: in vivo, Kochia scoparia
How it was run: as §1

chickweed = assay type: in vivo, Stellaria media
How it was run: as §1

[1] = Postemergence, 31 g ai/ha, visually evaluated after 13 to 15 days
[2] = postemergence, 62 g ai/ha, scale 0 to 100
[3] = postemergence, 250 g ai/ha, scale 0 to 100 (0 no effect, 100 complete control)
[4] = postemergence, 125 g ai/ha, scale 0 to 100, 0 no effect, 100 complete control
[5] = 250 g ai/ha, scale 0 to 100 (0 no effect, 100 complete control)
[6] = 125 g ai/ha, scale 0 to 100, 0 no effect, 100 complete control

CCCc1cc(C(=O)NOCC)nn1Cc1ccnc(C(F)(F)F)c1 [Compound 185]
Plant response rating (scale of 0 to 100 where 0 is no effect and 100 is complete control), Blackgrass (blackgrass; [1]): 0
Blackgrass plant response rating (blackgrass; [2]): 0
Plant response rating, Blackgrass (blackgrass; [3]): 5
Plant response rating, Blackgrass (blackgrass; [4]): 5
Plant response rating, Ryegrass, Italian (ryegrass, Italian; [5]): 0
Plant response rating, Ryegrass, Italian (ryegrass, Italian; [6]): 0
Plant response rating, Wheat (wheat; [5]): 10
Wheat plant response rating (wheat; scale 0 to 100): 5
Plant response rating (scale of 0 to 100 where 0 is no effect and 100 is complete control), Foxtail, Giant (foxtail, giant; [1]): 5
Foxtail, Giant plant response rating (foxtail, giant; [2]): 5
Plant response rating, Foxtail, Giant (foxtail, giant; [3]): 5
Plant response rating, Foxtail, Giant (foxtail, giant; [4]): 10
Plant response rating (scale of 0 to 100 where 0 is no effect and 100 is complete control), Johnsongrass (johnsongrass; [1]): 0
Johnsongrass plant response rating (johnsongrass; [2]): 0
Plant response rating, Johnsongrass (johnsongrass; [3]): 5
Plant response rating, Johnsongrass (johnsongrass; [4]): 0
Plant response rating (scale of 0 to 100 where 0 is no effect and 100 is complete control), Lambsquarters (lambsquarters; [1]): 70
Lambsquarters plant response rating (lambsquarters; [2]): 35
Plant response rating, Lambsquarters (lambsquarters; [3]): 65
Plant response rating, Lambsquarters (lambsquarters; [4]): 45
Plant response rating (scale of 0 to 100 where 0 is no effect and 100 is complete control), Morningglory (morningglory; [1]): 40
Morningglory plant response rating (morningglory; [2]): 45
Plant response rating, Morningglory (morningglory; [3]): 75
Plant response rating, Morningglory (morningglory; [4]): 85
Plant response rating (scale of 0 to 100 where 0 is no effect and 100 is complete control), Nutsedge, Yellow (nutsedge, yellow; [1]): 0
Nutsedge, Yellow plant response rating (nutsedge, yellow; [2]): 0
Plant response rating, Nutsedge, Yellow (nutsedge, yellow; [3]): 10
Plant response rating, Nutsedge, Yellow (nutsedge, yellow; [4]): 5
Pigweed plant response rating (pigweed; 62 g ai/ha, scale 0 to 100): 50
Plant response rating, Pigweed (pigweed; [5]): 85
Plant response rating, Pigweed (pigweed; [6]): 75
Plant response rating, Ragweed (ragweed; [5]): 30
Plant response rating, Ragweed (ragweed; [6]): 40
Plant response rating, Soybean (soybean; [5]): 50
Soybean plant response rating (soybean; [6]): 40
Plant response rating (scale of 0 to 100 where 0 is no effect and 100 is complete control), Barnyardgrass (barnyardgrass; [1]): 0
Barnyardgrass plant response rating (barnyardgrass; [2]): 0
Plant response rating, Barnyardgrass (barnyardgrass; [3]): 20
Plant response rating, Barnyardgrass (barnyardgrass; [4]): 5
Oilseed Rape plant response rating (oilseed rape; 62 g ai/ha, scale 0 to 100): 40
Plant response rating, Oilseed Rape (oilseed rape; [5]): 70
Plant response rating, Oilseed Rape (oilseed rape; [6]): 50
Plant response rating, Waterhemp (waterhemp; [5]): 85
Waterhemp plant response rating (waterhemp; scale 0 to 100): 35
Plant response rating (scale of 0 to 100 where 0 is no effect and 100 is complete control), Oat, Wild (oat, wild; [1]): 5
Oat, Wild plant response rating (oat, wild; [2]): 10
Plant response rating, Oat, Wild (oat, wild; [3]): 15
Plant response rating, Oat, Wild (oat, wild; [4]): 10
Plant response rating (scale of 0 to 100 where 0 is no effect and 100 is complete control), Kochia (kochia; [1]): 50
Kochia plant response rating (kochia; [2]): 60
Plant response rating, Kochia (kochia; [3]): 80
Plant response rating, Kochia (kochia; [4]): 75
Plant response rating (scale of 0 to 100 where 0 is no effect and 100 is complete control), Chickweed (chickweed; [1]): 70
Chickweed plant response rating (chickweed; [2]): 80
Plant response rating, Chickweed (chickweed; [3]): 85
Plant response rating, Chickweed (chickweed; [4]): 85

Reference: US20150105252A1, “SUBSTITUTED PYRAZOLES AS HERBICIDES” (E I DU PONT DE NEMOURS AND COMPANY, priority 2013, published 2015)
